{"source": "paper PMC10373627", "about": "“The Stability of Synthetic Cathinones and the Study of Potential Intake Biomarkers in the Biological Material from a Case of 3-CMC Poisoning” (Journal of Analytical Toxicology, 2023)", "key": {"[1]": {"assay": "GC-MS identification of 3-CMC and its metabolites in the person's urine sample after derivatization", "type": "in vivo, human", "settings": "fatal poisoning case; for presence in urine sample: GC-MS after acetylation; for amount present in urine sample: GC-MS after trimethylsilylation", "description": "The fluid from the Venflon was acetylated and then analyzed by gas chromatography coupled to mass spectrometry (GC--MS), as described by Synowiec et al. ([8]). Screening analysis was performed using a library developed by Pfleger, Maurer and Weber ([9]), which contains a broad group of compounds, including acetyl or trimethylsilyl derivatives, as well as the authors’ library of SCs ([8]). The analysis was conducted on the day of the autopsy, which was 2 days after the body was discovered.\nFollowing preliminary analytical results indicating the presence of chloromethcathinone (CMC), the liquid from the Venflon further underwent a trimethylsilylation process ([8]) to distinguish the constitutional isomer of CMC.\nThe same procedure was carried out in the urine sample after SPE, according to the methods described in the authors’ earlier works ([10], [11])."}, "[2]": {"assay": "Stability study in the authentic autopsy blood sample (HPLC-ESI-MS-MS / HPLC-ESI-MS)", "type": "in vitro ADME, human", "description": "(§1) Due to the positive result of the identification analysis of the fluid from the Venflon, the biological material (blood and urine) was properly preserved on the same day. In the case of the urine sample, the pH was first measured using a universal indicator paper (pH = 6.0). The blood sample was preserved in a tube with sodium fluoride (NaF) and potassium oxalate (KOx). The biological material was divided into three parts, each with a volume of 1 mL. The first part was stored at 4°C. The second part was acidified with 1 M HCl: 100 µL of HCl was added to 1 mL of the blood sample to obtain pH <7, and 50 µL of HCl was added to 1 mL of the urine sample to obtain pH = 4.2. The third part of the blood and urine samples was stored at −30°C.\n(§2) The 200 µL of blank, calibration and quality control (QC) blood samples and the person’s blood and urine samples were enriched with the addition of methanolic IS 4-CEC-d5. For the blood sample, the final IS concentration was 100 ng/mL, and for the urine sample, it was 1,000 ng/mL. A homogenizing element in the form of a 5-mm-diameter stainless steel bead was added to the Eppendorf Tubes containing the samples. The samples were then deproteinized with frozen acetonitrile (400 µL). The samples were then centrifuged, and the supernatant was evaporated in a stream of nitrogen in a 40°C sand bath. The dry residue was dissolved in 100 µL of a mixture of phase A and B solution in a volume ratio of 60:40 (v/v). Mobile phase A is a mixture of 2 mM ammonium formate and 0.2% formic acid solution in water (v/v), and phase B is a mixture of 2 mM ammonium formate and 0.2% formic acid solution in acetonitrile (v/v).\nAn Agilent 1200 liquid chromatograph (Agilent) equipped with a binary pump (G1312 A) and an autosampler (G1329 A) was used. The chromatographic separation was performed with a Poroshell 120 EC-C18 column (3.0 × 100 mm, particle size 2.7 μm, Agilent). The column was thermostated at 40°C.\nThe flow of the mobile phases through the chromatographic column occurred at a programmed gradient of mobile phase composition and flow rate (initially, 95% of phase A and 5% of phase B at a flow rate of 0.5 mL/min; then, the proportion of phases was increased linearly to 90% of phase B at a flow rate of 1.0 mL/min at 10 minutes, and the condition was maintained for 2 min). Subsequently, the proportion of phases was increased linearly to 95% of phase B at a flow rate of 1.0 mL/min at 15 minutes. The volume of the samples injected into the chromatographic column was 15 μL.\nA 6410 triple-quadrupole mass spectrometer (Agilent) with an electrospray ionization (ESI) source, operated under a positive mode, was used. The operational parameters of the ESI source were as follows: vaporizing temperature 350 °C, pressure of the nebulizing gas 40 psi, flow of the drying gas 9 L/min and capillary potential 3.5 kV. The multiple reaction monitoring (MRM) was employed. The fragmentation parameters of the analyzed compounds are listed in Table I. For the analysis of the selected potential biomarker, dihydro-3-CMC, the total ion current scanning mode was used in the m/z range of 50–650 amu.\nWhile planning the experiment, the limitation was the amount of the biological material secured during the autopsy, as it came from an authentic case. The reference point (day 1) was the extraction of the biological material stored at 4°C for 24 hours using the procedure described earlier. The deproteination was performed the day after the autopsy was conducted, and the biological material was preserved. Subsequently, all the adequately preserved biological material was examined similarly after 2, 4 and 12 months. These intervals were chosen on the basis of the time that elapses between the autopsy and the intervals on which toxicological examinations are most often ordered to the Toxicology Laboratory of the Department of Forensic Medicine in Krakow by the Prosecutor’s Office. […]"}, "[3]": {"assay": "Stability study in the authentic autopsy urine sample (HPLC-ESI-MS-MS / HPLC-ESI-MS)", "type": "in vitro ADME, human", "description": "as §1\nas §2, with “acetonitrile (v/v). […]” for “acetonitrile (v/v).”\nA 6410 triple-quadrupole mass spectrometer (Agilent) with an electrospray ionization (ESI) source, operated under a positive mode, was used. […] The fragmentation parameters of the analyzed compounds are listed in Table I. For the analysis of the selected potential biomarker, dihydro-3-CMC, the total ion current scanning mode was used in the m/z range of 50–650 amu. […]"}, "[4]": {"parameters": "method as in PMID 30557825", "settings": "cited from earlier work"}, "[5]": {"parameters": "method as in PMID 30557825", "settings": "cited from earlier work", "remark": "listed apart in the source"}, "[6]": {"parameters": "method as in PMID 30636991", "settings": "cited from earlier work"}, "[7]": {"parameters": "method as in PMID 32407550", "settings": "cited from earlier work"}, "[8]": {"settings": "any given storage conditions (4°C, 4°C + HCl, −30°C), 12 months"}}, "note": "Like-named read-outs stand apart in the source and are kept apart here.", "data": [{"smiles": "CC(=O)NC(C)C(OC(C)=O)c1cccc(Cl)c1", "note": "(centres unmarked) [N-desmethyl-dihydro-3-CMC-2AC]", "values": [{"measurement": "presence in urine sample", "setting": "[1]", "result": "presence"}]}, {"smiles": "CNC(C)C(=O)c1cccc(Cl)c1", "note": "(centres unmarked) [3-CMC, 1-(3-chlorophenyl)-2-(methylamino)propan-1-one]", "values": [{"measurement": "decomposition on storage of the biological material", "setting": "[2]; 24 hours of storage at 4°C", "result": "significant decomposition"}, {"measurement": "time for which the parent substance could be detected in blood sample", "setting": "[2]; acidified blood sample, ∼4°C", "result": 4, "unit": "months"}, {"measurement": "time after which detection in blood sample was still possible", "setting": "[2]; blood stored at −30°C", "result": "≥ 12", "unit": "months"}, {"measurement": "detection in blood sample", "setting": "[2]; blood stored at ∼4°C, after 2 months", "result": "no longer detected"}, {"measurement": "3-CMC concentration in blood sample", "setting": "[2]; storage 4°C + HCl, 2 months since autopsy", "result": 580, "unit": "ng/mL"}, {"measurement": "3-CMC concentration in blood sample", "setting": "[2]; storage 4°C + HCl, 4 months since autopsy", "result": 150, "unit": "ng/mL"}, {"measurement": "3-CMC concentration in blood sample", "setting": "[2]; storage 4°C + HCl, 12 months since autopsy", "result": 0, "unit": "ng/mL"}, {"measurement": "3-CMC concentration in blood sample", "setting": "[2]; storage 4°C, 2 months since autopsy", "result": 0, "unit": "ng/mL"}, {"measurement": "3-CMC concentration in blood sample", "setting": "[2]; storage 4°C, 4 months since autopsy", "result": 0, "unit": "ng/mL"}, {"measurement": "3-CMC concentration in blood sample", "setting": "[2]; storage 4°C, 12 months since autopsy", "result": 0, "unit": "ng/mL"}, {"measurement": "3-CMC concentration in blood sample", "setting": "[2]; storage 4°C, 1 day since autopsy (reference point, 24 hours at 4°C)", "result": 880, "unit": "ng/mL"}, {"measurement": "3-CMC concentration in blood sample", "setting": "[2]; storage −30°C, 2 months since autopsy", "result": "2,200 ng/mL"}, {"measurement": "3-CMC concentration in blood sample", "setting": "[2]; storage −30°C, 4 months since autopsy", "result": "2,500 ng/mL"}, {"measurement": "3-CMC concentration in blood sample", "setting": "[2]; storage −30°C, 12 months since autopsy", "result": "1,100 ng/mL"}, {"measurement": "3-CMC concentration in blood sample", "setting": "[2]; stored at −30°C (frozen immediately)", "result": "> 2,000 ng/mL"}, {"measurement": "stability in urine sample", "setting": "[3]; after acidification and freezing, investigated period 12 months", "result": "stable throughout the investigated time period"}, {"measurement": "detection in urine sample", "setting": "[3]; urine pH ∼6, 4°C, after 2 months", "result": "impossible to detect"}, {"measurement": "presence in urine sample", "setting": "[1]", "result": "presence"}, {"measurement": "amount present in urine sample", "setting": "[1]", "result": "trace amounts"}]}, {"smiles": "CNC(C)C(O)c1cccc(Cl)c1", "note": "(centres unmarked) [dihydro-3-CMC]", "values": [{"measurement": "stability in blood sample", "setting": "[2]; [8]", "result": "high stability"}, {"measurement": "stability in urine sample", "setting": "[3]; [8]", "result": "high stability"}, {"measurement": "presence in urine sample", "setting": "[1]", "result": "mainly"}, {"measurement": "amount present in urine sample", "setting": "[1]", "result": "mainly present"}]}, {"smiles": "CNC(C)C(=O)c1ccc(Cl)cc1", "note": "(centres unmarked) [4-CMC, 4-chloromethcathinone]", "values": [{"measurement": "estimated time for complete degradation in blood", "setting": "[4]; room temperature", "result": 22, "unit": "days"}, {"measurement": "estimated time for complete degradation in blood", "setting": "[4]; stored at 5°C (refrigerated), blank blood enriched with 4-CMC", "result": "~4", "unit": "months"}, {"measurement": "half-life in blood sample", "setting": "[4]; stored at 5°C", "result": 24, "unit": "h"}, {"measurement": "estimated time for complete degradation in blood", "setting": "[4]; stored at −26°C", "result": 11.6, "unit": "months"}, {"measurement": "estimated time for complete degradation in urine", "setting": "[5]; 5°C", "result": 4.4, "unit": "months"}, {"measurement": "estimated time for complete degradation in urine", "setting": "[5]; 24°C", "result": 24, "unit": "days"}, {"measurement": "half-life in urine sample", "setting": "[5]; urine pH = 5", "result": "~2.5", "unit": "months"}, {"measurement": "estimated time for complete degradation in urine", "setting": "[5]; −26°C", "result": "> 3", "unit": "years"}, {"measurement": "decrease in concentration in serum sample", "setting": "[6]; 3 days of storage at 4°C, compared to original extraction", "result": 65, "unit": "%"}, {"measurement": "concentration in serum sample", "setting": "[6]; 113 days (∼3.7 months) after the original extraction", "result": "below the LOQ"}, {"measurement": "concentration in serum sample", "setting": "[6]; day 0", "result": 11.5, "unit": "ng/mL"}, {"measurement": "concentration in serum sample", "setting": "[6]; day 3, storage at 4°C", "result": 4.0, "unit": "ng/mL"}, {"measurement": "decrease in concentration in blood sample", "setting": "[7]; 3 days at 23°C", "result": 54, "unit": "%"}, {"measurement": "decrease in concentration in blood sample", "setting": "[7]; 30 days of storage at 4°C", "result": 63, "unit": "%"}, {"measurement": "total decay time in blood sample", "setting": "[7]; refrigerated storage, blood from an authentic case", "result": 90, "unit": "days"}, {"measurement": "stability in blood sample", "setting": "[7]; stored at −15°C, entire experiment (90 days)", "result": "stable"}]}, {"smiles": "CC(=O)NC(C)C(=O)c1cccc(Cl)c1", "note": "(centres unmarked) [N-desmethyl-3-CMC-AC]", "values": [{"measurement": "presence in urine sample", "setting": "[1]", "result": "presence"}]}]}
